Measured values taken from US20220323599A1, “ANTI-BCMA ANTIBODY CONJUGATE, COMPOSITIONS COMPRISING THE SAME, AND METHODS OF MAKING AND USING THE SAME” (CELGENE CORPORATION, priority 2019, published 2022).

Test system: MM.1S multiple myeloma cells
Test: Disseminated MM.1S multiple myeloma model in NSG mice
Format: in vivo
Source text: Female NOD severe combined immune deficient (SCID) gamma (NSG) mice 8-9 weeks of age were inoculated with 5×10^6 multiple myeloma MM.1S cells into the tail vein. Randomization by body weight and start of treatment was initiated 7 days post tumor inoculation. The treatment groups are outlined in Table 10. […] Groups 1-10 (n=6/group) were monitored for survival endpoint characterized by >20% body weight loss and clinical signs including lethargy, hind limb paralysis or moribundity. Groups 11-20 (n=3/group) were used for bone marrow harvest and analysis of tumor burden on day 28 post tumor cell inoculation. For all groups, body weights were monitored 1-2×/week.
Tumor burden was assessed and quantified by detection of hCD138 positive (hCD138+) cells in the bone marrow. Bone marrow cells from mouse femur and tibia were pooled and assessed for human CD138+ expression using the Alexa Fluor 647 mouse anti-human CD138 clone MI15 (BD Biosciences #562097) according to the manufacturer's protocol. […] Data was analyzed using Flowjo (Tree Star, Inc., Ashland, Oreg.).
Female NOD severe combined immune deficient (SCID) gamma (NSG) mice 9-12 weeks of age were inoculated with 5×10^6 multiple myeloma MM.1S cells into the tail vein. […] Body weights were monitored 1-2×/week. […]

| Molecule | effect on survival compared to vehicle control (Example 9, single agent at 3 or 10 mg/kg, single IP) | mean survival (Example 9, 0.8 mg/kg Velcade q7dx2 IP, vehicle 30.6 days) |
| --- | --- | --- |
| Daratumumab: MM standard of care agent, clinical grade Daratumumab | no significant effect on survival compared to vehicle control |  |
| CC(C)C[C@H](NC(=O)[C@H](Cc1ccccc1)NC(=O)c1cnccn1)B(O)O [Velcade, bortezomib] |  | 40.6 days |
